Measurements as given in ChEMBL document CHEMBL1201862, “PubChem BioAssay data set” (2004).
The source made the active and inactive calls.

How the values were obtained:
[1] = target: T1, Dual specificity protein phosphatase 3 (Homo sapiens, UniProt P51452); assay: VHR1 phosphatase inhibitors, biochemical (AID 1878)
[2] = target: T2, Dual specificity protein phosphatase 6 (Rattus norvegicus, UniProt Q64346); assay: inhibition of rat DUSP6 enzyme activity – biochemical, in vitro, primary screen (AID 425)
T2 sequence (Q64346 whole entry): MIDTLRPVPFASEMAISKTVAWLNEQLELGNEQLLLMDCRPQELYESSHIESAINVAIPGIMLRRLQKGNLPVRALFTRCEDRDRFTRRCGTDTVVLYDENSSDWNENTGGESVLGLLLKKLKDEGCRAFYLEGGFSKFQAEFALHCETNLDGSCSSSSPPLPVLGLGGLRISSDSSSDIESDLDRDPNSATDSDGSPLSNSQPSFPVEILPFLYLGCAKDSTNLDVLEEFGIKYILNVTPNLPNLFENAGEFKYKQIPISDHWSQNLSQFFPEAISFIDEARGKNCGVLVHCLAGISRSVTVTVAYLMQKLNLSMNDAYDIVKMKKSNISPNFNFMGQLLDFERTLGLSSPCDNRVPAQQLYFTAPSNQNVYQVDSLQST

[3] = target: T1, Dual specificity protein phosphatase 3; assay: VHR phosphatase inhibition, dose response, selectivity assay for STEP inhibitor project, biochemical (AID 602374); type: functional; details: read-out: IC50_Mean
[4] = target: T3, Carboxy-terminal domain RNA polymerase II polypeptide A small phosphatase 1 (Homo sapiens, UniProt Q9GZU7); assay: CTDSP1 inhibitors, concentration-response, biochemical, absorbance readout, ultra-high-throughput screen actives (AID 540297); type: functional
T3 sequence (Q9GZU7 whole entry): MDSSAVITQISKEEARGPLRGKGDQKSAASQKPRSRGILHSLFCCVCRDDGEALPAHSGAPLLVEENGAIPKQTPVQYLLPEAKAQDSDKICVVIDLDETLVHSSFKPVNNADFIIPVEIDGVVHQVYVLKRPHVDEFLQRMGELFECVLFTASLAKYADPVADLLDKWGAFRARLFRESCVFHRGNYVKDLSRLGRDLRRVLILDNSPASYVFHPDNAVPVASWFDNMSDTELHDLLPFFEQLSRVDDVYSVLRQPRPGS

[5] = target: Genome polyprotein (dengue virus type 2, UniProt P29990); assay: flavivirus cap methylation enzyme inhibition – biochemical, confirmation dose response, primary screen (AID 588689); type: functional
Chain of Genome polyprotein (P29990 2492-3391 limits assumed): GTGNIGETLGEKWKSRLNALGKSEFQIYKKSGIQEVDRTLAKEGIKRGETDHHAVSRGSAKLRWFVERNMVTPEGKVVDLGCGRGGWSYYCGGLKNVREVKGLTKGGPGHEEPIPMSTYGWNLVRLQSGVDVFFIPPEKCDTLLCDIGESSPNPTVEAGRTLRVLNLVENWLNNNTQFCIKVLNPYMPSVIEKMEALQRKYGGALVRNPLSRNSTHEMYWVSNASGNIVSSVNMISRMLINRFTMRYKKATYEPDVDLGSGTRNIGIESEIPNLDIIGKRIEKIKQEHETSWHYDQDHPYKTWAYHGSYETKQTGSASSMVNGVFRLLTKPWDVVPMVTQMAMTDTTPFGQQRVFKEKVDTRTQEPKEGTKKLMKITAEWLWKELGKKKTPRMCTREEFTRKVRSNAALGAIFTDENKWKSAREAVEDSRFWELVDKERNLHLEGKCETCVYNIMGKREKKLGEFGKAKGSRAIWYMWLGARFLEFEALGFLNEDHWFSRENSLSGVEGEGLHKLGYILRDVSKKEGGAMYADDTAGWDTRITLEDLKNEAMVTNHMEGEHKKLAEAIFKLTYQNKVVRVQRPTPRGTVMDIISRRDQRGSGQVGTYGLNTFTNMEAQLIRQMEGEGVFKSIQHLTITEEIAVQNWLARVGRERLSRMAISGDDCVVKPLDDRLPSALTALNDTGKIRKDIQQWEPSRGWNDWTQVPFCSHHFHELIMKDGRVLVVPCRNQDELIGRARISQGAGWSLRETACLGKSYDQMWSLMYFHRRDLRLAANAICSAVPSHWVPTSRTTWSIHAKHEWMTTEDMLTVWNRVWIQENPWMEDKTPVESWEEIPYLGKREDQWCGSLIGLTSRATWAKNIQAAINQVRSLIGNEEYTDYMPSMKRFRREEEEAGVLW

[6] = target: T4, Low molecular weight phosphotyrosine protein phosphatase (Homo sapiens, UniProt P24666); type: functional; details: read-out: IC50_Mean
T4 sequence (P24666 whole entry): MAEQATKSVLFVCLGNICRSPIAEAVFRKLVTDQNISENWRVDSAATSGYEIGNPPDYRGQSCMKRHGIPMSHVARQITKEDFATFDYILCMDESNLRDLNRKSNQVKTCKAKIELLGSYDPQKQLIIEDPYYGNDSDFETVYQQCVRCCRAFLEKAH

[7] = target: T5, Small ubiquitin-related modifier 1 (Homo sapiens, UniProt P63165); assay: SUMO1 protein interaction blockers, potency – biochemical, fluorescence polarization, uHTS hits, dose response (AID 624382); type: functional; details: read-out: IC50_Mean
T5 sequence (P63165 whole entry): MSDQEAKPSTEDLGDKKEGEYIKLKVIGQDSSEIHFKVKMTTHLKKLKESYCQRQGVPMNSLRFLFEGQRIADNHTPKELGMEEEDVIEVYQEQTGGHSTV

[8] = target: T6, Caspase-6 (Homo sapiens, UniProt P55212); assay: inhibition of CASP6 peptide cleavage – biochemical, VEID-R110 fluorescence, cherry-pick, dose response (AID 720632)
T6 sequence (P55212 whole entry): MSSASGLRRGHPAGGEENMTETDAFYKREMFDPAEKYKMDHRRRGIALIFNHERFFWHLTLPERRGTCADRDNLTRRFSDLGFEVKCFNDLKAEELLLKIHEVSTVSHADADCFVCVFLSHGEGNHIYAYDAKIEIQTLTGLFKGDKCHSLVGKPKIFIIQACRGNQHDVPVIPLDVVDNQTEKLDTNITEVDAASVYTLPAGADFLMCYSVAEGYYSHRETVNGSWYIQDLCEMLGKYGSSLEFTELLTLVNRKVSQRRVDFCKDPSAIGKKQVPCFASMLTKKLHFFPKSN

[9] = target: T5, Small ubiquitin-related modifier 1; assay: SUMO1 protein-protein binding blockers, potency – biochemical, FRET, dose response (AID 624383); type: functional; details: read-out: IC50_Mean
[10] = target: Tyrosine-protein phosphatase non-receptor type 11 (Homo sapiens, UniProt Q06124); assay: PTPN11 enzyme inhibitors – biochemical, selectivity assay for STEP inhibitor project, dose response (AID 602367); type: functional; details: read-out: IC50_Mean
Chain of Tyrosine-protein phosphatase non-receptor type 11 (Q06124 whole entry): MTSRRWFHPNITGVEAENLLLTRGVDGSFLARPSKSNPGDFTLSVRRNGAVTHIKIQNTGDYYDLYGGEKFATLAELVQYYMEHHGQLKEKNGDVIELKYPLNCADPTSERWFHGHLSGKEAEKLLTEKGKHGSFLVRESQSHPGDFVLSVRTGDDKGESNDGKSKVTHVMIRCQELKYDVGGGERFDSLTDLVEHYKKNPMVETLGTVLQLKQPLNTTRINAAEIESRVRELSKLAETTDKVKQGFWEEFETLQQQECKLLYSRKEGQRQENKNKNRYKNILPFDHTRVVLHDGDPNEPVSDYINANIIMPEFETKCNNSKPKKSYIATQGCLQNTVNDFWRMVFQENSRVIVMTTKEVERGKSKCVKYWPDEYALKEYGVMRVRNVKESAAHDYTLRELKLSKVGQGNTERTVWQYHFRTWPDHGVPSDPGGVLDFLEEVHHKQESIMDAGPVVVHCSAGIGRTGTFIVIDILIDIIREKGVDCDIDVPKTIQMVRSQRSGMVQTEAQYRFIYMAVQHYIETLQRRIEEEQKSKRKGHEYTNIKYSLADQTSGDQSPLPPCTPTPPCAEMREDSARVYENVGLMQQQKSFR

[11] = target: T7, Tyrosine-protein phosphatase non-receptor type 22 (Homo sapiens, UniProt Q9Y2R2); assay: lymphoid phosphatase LYP inhibitors – biochemical, selectivity assay for STEP inhibitor project, dose response (AID 624241); type: functional
T7 sequence (Q9Y2R2 whole entry): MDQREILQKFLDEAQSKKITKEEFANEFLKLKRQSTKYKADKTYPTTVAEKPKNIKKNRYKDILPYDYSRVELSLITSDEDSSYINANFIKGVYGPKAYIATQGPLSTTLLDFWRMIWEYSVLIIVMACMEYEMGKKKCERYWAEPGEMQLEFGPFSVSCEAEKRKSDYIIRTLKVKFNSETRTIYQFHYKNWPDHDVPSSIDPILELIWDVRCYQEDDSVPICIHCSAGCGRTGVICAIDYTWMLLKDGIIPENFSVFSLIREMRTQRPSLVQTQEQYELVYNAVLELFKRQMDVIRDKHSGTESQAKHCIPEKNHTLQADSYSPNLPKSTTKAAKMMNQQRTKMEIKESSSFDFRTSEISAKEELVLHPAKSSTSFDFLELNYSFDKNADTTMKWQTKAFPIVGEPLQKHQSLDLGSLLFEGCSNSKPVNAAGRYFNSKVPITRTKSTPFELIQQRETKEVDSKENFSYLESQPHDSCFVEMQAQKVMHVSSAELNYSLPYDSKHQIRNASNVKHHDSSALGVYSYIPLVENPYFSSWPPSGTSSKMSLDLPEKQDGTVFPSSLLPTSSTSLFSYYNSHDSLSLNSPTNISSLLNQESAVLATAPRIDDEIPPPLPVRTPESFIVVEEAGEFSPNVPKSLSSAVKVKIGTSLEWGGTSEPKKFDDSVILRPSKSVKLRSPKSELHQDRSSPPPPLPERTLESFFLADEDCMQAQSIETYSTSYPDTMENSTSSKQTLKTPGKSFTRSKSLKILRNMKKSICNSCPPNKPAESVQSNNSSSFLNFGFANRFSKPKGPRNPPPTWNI

[12] = target: T1, Dual specificity protein phosphatase 3; assay: VHR1 phosphatase inhibitors, primary screen, biochemical, absorbance, uHTS (AID 1654)
[13] = target: Tyrosine-protein phosphatase non-receptor type 5 (Homo sapiens, UniProt P54829); assay: PTPN5 enzyme inhibition – biochemical, fluorescence intensity, uHTS hits, confirmation (AID 602372); type: functional; details: read-out: IC50_Mean
Chain of Tyrosine-protein phosphatase non-receptor type 5 (P54829 whole entry): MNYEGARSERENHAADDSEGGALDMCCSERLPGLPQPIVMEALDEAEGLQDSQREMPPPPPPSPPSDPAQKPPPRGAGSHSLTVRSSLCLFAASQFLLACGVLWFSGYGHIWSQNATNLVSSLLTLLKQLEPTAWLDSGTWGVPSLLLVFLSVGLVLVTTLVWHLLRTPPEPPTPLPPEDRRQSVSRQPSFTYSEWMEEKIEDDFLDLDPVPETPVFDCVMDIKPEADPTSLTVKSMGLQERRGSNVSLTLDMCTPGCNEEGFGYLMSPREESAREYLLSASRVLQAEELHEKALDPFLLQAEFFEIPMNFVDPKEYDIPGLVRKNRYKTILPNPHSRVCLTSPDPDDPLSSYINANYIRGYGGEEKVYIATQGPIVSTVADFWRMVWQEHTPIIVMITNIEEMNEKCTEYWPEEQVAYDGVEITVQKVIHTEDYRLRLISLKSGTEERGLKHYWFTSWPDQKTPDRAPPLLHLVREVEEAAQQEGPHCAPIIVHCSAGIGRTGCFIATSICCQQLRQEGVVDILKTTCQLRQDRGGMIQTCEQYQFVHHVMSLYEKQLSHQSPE

[14] = target: T4, Low molecular weight phosphotyrosine protein phosphatase; type: functional; details: read-out: IC50_Mean; remark: listed apart in the source
[15] = target: T8, Beta-lactamase (Salmonella choleraesuis (strain SC-B67), UniProt Q5J463); assay: Epi-absorbance-based counterscreen for selective VIM-2 inhibitors: dose response biochemical high throughput screening assay to identify inhibitors of TEM-1 serine-beta-lactamase.
T8 sequence (Q5J463 whole entry): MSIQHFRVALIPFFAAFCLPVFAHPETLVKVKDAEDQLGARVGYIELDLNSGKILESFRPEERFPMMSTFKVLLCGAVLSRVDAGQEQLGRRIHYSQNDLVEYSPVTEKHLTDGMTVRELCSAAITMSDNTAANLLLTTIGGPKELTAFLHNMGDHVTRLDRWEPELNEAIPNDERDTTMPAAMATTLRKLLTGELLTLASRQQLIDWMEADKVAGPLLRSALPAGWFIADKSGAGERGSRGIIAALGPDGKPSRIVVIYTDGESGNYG

[16] = target: T9, Beta-lactamase (Pseudomonas aeruginosa, UniProt Q79MP6); assay: inhibition of IMP-1 beta-lactamase activity – biochemical, epi-absorbance, selectivity assay for VIM-2 inhibitor project, dose response (AID 1920)
T9 sequence (Q79MP6 whole entry): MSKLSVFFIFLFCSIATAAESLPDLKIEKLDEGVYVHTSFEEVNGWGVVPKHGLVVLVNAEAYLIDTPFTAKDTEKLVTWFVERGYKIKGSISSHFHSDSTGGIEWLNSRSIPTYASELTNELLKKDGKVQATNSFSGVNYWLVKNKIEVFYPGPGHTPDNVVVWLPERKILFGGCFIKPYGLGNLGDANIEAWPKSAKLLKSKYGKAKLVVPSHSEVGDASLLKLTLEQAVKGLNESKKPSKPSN

[17] = target: T9, Beta-lactamase; assay: […] counterscreen for selective VIM-2 inhibitors: dose response biochemical high throughput screening assay to identify inhibitors of IMP-1 metallo-beta-lactamase.
[18] = target: T9, Beta-lactamase
[19] = target: Beta Lactamase (Pseudomonas aeruginosa, UniProt Q932Y6);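 also: confirmatory high-throughput screen measuring VIM-2 metallo-beta-lactamase inhibition by epi-absorbance in dose response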
[20] = target: T8, Beta-lactamase
[21] = target: T10, Sentrin-specific protease 1 (Homo sapiens, UniProt Q9P0U3); assay: SENP1 catalytic domain blockers, concentration series – biochemical, kinetic FRET, dose response (AID 651697); type: functional; details: read-out: IC50_Mean
T10 sequence (Q9P0U3 whole entry): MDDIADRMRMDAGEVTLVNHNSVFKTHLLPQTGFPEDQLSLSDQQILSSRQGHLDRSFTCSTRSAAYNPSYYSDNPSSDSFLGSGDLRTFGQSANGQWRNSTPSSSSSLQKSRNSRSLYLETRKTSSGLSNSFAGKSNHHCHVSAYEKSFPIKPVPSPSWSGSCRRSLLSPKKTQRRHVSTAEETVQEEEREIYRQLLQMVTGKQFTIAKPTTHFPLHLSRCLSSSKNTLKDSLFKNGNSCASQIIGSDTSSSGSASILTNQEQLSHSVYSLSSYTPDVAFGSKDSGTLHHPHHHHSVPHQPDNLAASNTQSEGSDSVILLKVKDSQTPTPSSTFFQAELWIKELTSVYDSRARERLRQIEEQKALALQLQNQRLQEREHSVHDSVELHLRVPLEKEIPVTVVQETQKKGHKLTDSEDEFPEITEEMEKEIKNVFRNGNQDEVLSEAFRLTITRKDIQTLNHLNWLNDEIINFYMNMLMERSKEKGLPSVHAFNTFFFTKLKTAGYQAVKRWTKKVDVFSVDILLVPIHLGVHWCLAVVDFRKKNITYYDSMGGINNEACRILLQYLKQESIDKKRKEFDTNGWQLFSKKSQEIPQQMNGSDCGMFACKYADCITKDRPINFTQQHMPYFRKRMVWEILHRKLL

[22] = target: T10, Sentrin-specific protease 1; assay: Dose response confirmation of small molecule inhibitors of the catalytic domain of the SUMO protease, SENP1 in a FRET assay.; type: functional; details: read-out: IC50_Mean
[23] = target: Broad substrate specificity ATP-binding cassette transporter ABCG2 (Homo sapiens, UniProt Q9UNQ0); assay: blockers of JC-1 export by ABCG2 – Ig-MXP3 cells, flow cytometry, dose response (AID 1690); type: functional
Chain of Broad substrate specificity ATP-binding cassette transporter ABCG2 (Q9UNQ0 whole entry): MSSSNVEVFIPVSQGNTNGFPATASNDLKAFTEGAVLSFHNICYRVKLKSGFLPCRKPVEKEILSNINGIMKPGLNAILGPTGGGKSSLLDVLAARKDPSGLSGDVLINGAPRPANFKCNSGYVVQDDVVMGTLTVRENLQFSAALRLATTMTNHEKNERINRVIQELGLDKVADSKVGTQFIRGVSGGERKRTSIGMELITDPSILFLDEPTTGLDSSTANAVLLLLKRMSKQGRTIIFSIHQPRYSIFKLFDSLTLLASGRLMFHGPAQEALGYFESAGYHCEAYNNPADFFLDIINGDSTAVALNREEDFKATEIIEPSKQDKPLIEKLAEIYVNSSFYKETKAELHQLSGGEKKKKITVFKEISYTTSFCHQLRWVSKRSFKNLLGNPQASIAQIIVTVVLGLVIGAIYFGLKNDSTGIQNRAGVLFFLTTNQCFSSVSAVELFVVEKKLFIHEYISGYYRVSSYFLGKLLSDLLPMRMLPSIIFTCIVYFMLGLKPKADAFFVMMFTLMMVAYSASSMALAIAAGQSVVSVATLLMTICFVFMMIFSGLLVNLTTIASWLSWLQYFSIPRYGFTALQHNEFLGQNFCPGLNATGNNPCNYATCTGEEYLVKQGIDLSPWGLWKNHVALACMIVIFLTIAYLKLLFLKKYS

[24] = target: ATP-dependent translocase ABCB1 (Homo sapiens, UniProt P08183); assay: inhibition of P-gp mediated JC-1 efflux – Jurkat-DNR cells, flow cytometry, dose response (AID 1689); type: functional
Chain of ATP-dependent translocase ABCB1 (P08183 whole entry): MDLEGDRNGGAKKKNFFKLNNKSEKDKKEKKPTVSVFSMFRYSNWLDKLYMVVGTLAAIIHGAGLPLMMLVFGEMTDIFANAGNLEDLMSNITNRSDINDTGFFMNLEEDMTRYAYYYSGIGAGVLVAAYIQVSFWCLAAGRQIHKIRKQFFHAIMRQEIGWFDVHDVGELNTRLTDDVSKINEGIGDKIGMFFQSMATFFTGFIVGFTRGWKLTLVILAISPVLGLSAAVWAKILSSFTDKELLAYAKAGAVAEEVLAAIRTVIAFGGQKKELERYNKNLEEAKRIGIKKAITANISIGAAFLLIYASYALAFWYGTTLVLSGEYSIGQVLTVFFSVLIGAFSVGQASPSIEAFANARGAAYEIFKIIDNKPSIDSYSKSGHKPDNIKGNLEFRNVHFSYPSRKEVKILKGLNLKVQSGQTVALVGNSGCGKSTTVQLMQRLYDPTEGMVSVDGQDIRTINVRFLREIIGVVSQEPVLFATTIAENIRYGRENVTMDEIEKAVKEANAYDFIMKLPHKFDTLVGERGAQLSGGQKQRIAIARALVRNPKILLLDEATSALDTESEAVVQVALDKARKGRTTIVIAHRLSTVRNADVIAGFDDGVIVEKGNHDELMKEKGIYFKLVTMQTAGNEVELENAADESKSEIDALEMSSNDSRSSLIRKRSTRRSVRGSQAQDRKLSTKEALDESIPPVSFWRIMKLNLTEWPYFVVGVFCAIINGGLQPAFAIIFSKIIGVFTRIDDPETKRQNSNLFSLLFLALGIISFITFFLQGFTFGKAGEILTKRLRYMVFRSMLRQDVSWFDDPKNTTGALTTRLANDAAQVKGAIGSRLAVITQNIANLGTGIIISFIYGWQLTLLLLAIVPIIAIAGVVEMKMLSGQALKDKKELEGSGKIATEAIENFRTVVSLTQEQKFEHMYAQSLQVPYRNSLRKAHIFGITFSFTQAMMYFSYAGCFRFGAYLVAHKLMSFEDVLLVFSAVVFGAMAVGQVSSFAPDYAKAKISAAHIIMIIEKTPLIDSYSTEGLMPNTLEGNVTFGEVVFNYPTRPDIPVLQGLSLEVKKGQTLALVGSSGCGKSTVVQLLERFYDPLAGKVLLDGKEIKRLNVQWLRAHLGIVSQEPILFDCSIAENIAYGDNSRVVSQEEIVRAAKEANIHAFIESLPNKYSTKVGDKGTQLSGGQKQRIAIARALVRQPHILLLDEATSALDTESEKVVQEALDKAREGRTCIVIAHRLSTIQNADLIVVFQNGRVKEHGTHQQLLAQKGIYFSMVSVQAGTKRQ

[25] = target: T11, DNA repair protein RAD52 homolog (Homo sapiens, UniProt P43351); type: functional, biochemical
T11 sequence (P43351 whole entry): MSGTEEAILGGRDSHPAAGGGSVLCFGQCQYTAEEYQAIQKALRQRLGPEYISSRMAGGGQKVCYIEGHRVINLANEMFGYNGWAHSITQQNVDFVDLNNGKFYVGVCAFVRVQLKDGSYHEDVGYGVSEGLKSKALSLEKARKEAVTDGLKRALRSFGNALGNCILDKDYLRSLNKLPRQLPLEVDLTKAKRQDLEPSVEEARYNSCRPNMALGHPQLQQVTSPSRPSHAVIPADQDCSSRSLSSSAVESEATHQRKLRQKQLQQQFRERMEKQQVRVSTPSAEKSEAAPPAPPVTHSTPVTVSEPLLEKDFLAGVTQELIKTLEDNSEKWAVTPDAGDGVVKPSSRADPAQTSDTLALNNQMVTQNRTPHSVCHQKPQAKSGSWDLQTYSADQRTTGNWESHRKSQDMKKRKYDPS

[26] = target: T12, DNA repair and recombination protein RAD54-like (Homo sapiens, UniProt Q92698); assay: RAD54 Holliday junction migration blockers – biochemical, fluorescence, cherry-picked samples, dose series, confirmation (AID 651657); type: functional
T12 sequence (Q92698 whole entry): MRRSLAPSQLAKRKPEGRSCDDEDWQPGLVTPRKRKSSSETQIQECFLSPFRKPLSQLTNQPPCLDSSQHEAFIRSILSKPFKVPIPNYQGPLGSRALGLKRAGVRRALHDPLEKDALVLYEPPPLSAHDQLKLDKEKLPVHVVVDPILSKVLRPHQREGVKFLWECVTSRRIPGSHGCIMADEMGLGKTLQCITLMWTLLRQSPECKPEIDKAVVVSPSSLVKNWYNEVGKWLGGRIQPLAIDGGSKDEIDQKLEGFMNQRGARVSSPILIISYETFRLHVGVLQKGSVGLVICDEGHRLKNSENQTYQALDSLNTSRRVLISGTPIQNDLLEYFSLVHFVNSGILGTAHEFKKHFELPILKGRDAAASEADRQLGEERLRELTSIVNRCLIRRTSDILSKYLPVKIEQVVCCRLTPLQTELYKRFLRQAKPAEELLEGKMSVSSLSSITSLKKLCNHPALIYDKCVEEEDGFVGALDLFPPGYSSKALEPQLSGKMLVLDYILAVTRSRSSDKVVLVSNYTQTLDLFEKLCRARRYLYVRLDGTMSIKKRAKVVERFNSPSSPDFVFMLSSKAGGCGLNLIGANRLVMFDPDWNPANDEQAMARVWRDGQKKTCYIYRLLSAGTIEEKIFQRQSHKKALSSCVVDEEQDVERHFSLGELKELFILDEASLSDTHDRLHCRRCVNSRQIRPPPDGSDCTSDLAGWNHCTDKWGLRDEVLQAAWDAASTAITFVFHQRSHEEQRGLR

[27] = target: Protein S100-A4 (Homo sapiens, UniProt P26447); assay: human S100A4 peptide interaction inhibition curves – biochemical, fluorescence polarization, cherry-picked hits, dose response (AID 687001); type: functional
Chain of Protein S100-A4 (P26447 whole entry): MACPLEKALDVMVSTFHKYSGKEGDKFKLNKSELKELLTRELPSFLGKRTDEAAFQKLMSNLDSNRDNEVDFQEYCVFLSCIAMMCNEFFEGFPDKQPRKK

T1 sequence (P51452 whole entry): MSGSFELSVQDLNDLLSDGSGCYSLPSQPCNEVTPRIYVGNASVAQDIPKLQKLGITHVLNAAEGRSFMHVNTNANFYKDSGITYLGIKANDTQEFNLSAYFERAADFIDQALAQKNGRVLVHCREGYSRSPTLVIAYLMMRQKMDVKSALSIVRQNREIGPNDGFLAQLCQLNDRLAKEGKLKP

## Cc1c(CCC(=O)O)c(=O)oc2c(C)c(OCc3cc4c(cc3Cl)OCO4)ccc12
[1]
  IC50: 2.99 µM (active)
[2]
  IC50: 78.7 µM (active)
[3]
  IC50: 1.67 µM (active)
[4]
  IC50: 3.17 µM (active)
[5]
  IC50: 51.7 µM (active)
[6]
  IC50: 8.04 µM (active)
[7]
  IC50: > 66.6 µM (inactive)
[8]
  AC50: 7.15 µM (active)
[9]
  IC50: 10.3 µM (active)
[10]
  IC50: 1.51 µM (active)
[11]
  IC50: 9 µM (active)
[12]
  IC50: 17.4 µM (active)
[13]
  IC50: 3.97 µM (active)
[14]
  IC50: 24.9 µM (inactive)

## CCCCn1c(-c2ccoc2C)n[nH]c1=S
[15]
  IC50: > 59.6 µM (inactive)
[16]
  IC50: > 59.6 µM (inactive)
[17]
  IC50: > 59.6 µM (inactive)

## O=C1C2C(c3ccccc3)C=CC(c3ccccc3)C2C(=O)N1c1ccccn1 (configuration not stated)
[18]
  IC50: 11.5 µM (inactive)
[19]
  IC50: 59.6 µM (inactive)
[20]
  IC50: > 59.6 µM (inactive)
[21]
  IC50: 10.8 µM (active)
[22]
  IC50: 7.9 µM (active)

## COc1ccc(/C=N/NC(=O)c2ccccc2F)cc1CN1CCN(c2ccc(F)cc2)CC1
[23]
  EC50: 4.07 µM (active)
[24]
  EC50: 3.08 µM (active)

## Cc1cccc(-c2cc(N3CCCN(C)CC3)n3nccc3n2)c1
[25]
  AC50: 2.45 µM (active)
[26]
  AC50: 24 µM (active)
[27]
  AC50: 7.12 µM (active)
